According to PubChem BioAssay AID1259407 (Chemical Carcinogenesis Research Information System (CCRIS), 2018):
The source made the active and inactive calls. The rule behind the calls is not given here.

Tested on: CCRIS mutagenicity, Ames/micronucleus/aberration tests
Assay: CCRIS mutagenicity studies
[1] = Test System: AMES SALMONELLA TYPHIMURIUM, Strain/Indicator: TA98, Metabolic Activation: HAMSTER, LIVER, S-9, AROCLOR 1254 (10%), Method: PREINCUBATION
[2] = Test System: AMES SALMONELLA TYPHIMURIUM, Strain/Indicator: TA98, Metabolic Activation: NONE, Method: PREINCUBATION
[3] = Test System: AMES SALMONELLA TYPHIMURIUM, Strain/Indicator: TA98, Metabolic Activation: RAT, LIVER, S-9, AROCLOR 1254 (10%), Method: PREINCUBATION
[4] = Test System: AMES SALMONELLA TYPHIMURIUM, Strain/Indicator: TA100, Metabolic Activation: HAMSTER, LIVER, S-9, AROCLOR 1254 (10%), Method: PREINCUBATION
[5] = Test System: AMES SALMONELLA TYPHIMURIUM, Strain/Indicator: TA100, Metabolic Activation: NONE, Method: PREINCUBATION
[6] = Test System: AMES SALMONELLA TYPHIMURIUM, Strain/Indicator: TA100, Metabolic Activation: RAT, LIVER, S-9, AROCLOR 1254 (10%), Method: PREINCUBATION
[7] = Test System: AMES SALMONELLA TYPHIMURIUM, Strain/Indicator: TA1535, Metabolic Activation: HAMSTER, LIVER, S-9, AROCLOR 1254 (10%), Method: PREINCUBATION
[8] = Test System: AMES SALMONELLA TYPHIMURIUM, Strain/Indicator: TA1535, Metabolic Activation: NONE, Method: PREINCUBATION
[9] = Test System: AMES SALMONELLA TYPHIMURIUM, Strain/Indicator: TA1535, Metabolic Activation: RAT, LIVER, S-9, AROCLOR 1254 (10%), Method: PREINCUBATION
[10] = Test System: AMES SALMONELLA TYPHIMURIUM, Strain/Indicator: TA1537, Metabolic Activation: HAMSTER, LIVER, S-9, AROCLOR 1254 (10%), Method: PREINCUBATION
[11] = Test System: AMES SALMONELLA TYPHIMURIUM, Strain/Indicator: TA1537, Metabolic Activation: NONE, Method: PREINCUBATION
[12] = Test System: AMES SALMONELLA TYPHIMURIUM, Strain/Indicator: TA1537, Metabolic Activation: RAT, LIVER, S-9, AROCLOR 1254 (10%), Method: PREINCUBATION

Measured: mutagenic call

CN(C)CCN(C)C
inactive: [1] inactive; negative | [2] inactive; negative | [3] inactive; negative | [4] inactive; negative | [5] inactive; negative | [6] inactive; negative | [7] inactive; negative | [8] inactive; negative | [9] inactive; negative | [10] inactive; negative | [11] inactive; negative | [12] inactive; negative

O=c1ccc2cc(O[C@@H]3O[C@H](CO)[C@@H](O)[C@H](O)[C@H]3O)c(O)cc2o1
inactive: Test System: AMES SALMONELLA TYPHIMURIUM, Strain/Indicator: TA92, Metabolic Activation: NONE, Method: SPOT TEST inactive; negative | Test System: AMES SALMONELLA TYPHIMURIUM, Strain/Indicator: TA92, Metabolic Activation: RAT, LIVER, S-9, AROCLOR 1254, Method: SPOT TEST inactive; negative | Test System: AMES SALMONELLA TYPHIMURIUM, Strain/Indicator: TA94, Metabolic Activation: NONE, Method: SPOT TEST inactive; negative | Test System: AMES SALMONELLA TYPHIMURIUM, Strain/Indicator: TA94, Metabolic Activation: RAT, LIVER, S-9, AROCLOR 1254, Method: SPOT TEST inactive; negative | Test System: AMES SALMONELLA TYPHIMURIUM, Strain/Indicator: TA97, Metabolic Activation: NONE, Method: SPOT TEST inactive; negative | Test System: AMES SALMONELLA TYPHIMURIUM, Strain/Indicator: TA97, Metabolic Activation: RAT, LIVER, S-9, AROCLOR 1254, Method: SPOT TEST inactive; negative | Test System: AMES SALMONELLA TYPHIMURIUM, Strain/Indicator: TA98, Metabolic Activation: NONE, Method: SPOT TEST inactive; negative | Test System: AMES SALMONELLA TYPHIMURIUM, Strain/Indicator: TA98, Metabolic Activation: RAT, LIVER, S-9, AROCLOR 1254, Method: SPOT TEST inactive; negative | Test System: AMES SALMONELLA TYPHIMURIUM, Strain/Indicator: TA100, Metabolic Activation: NONE, Method: SPOT TEST inactive; negative | Test System: AMES SALMONELLA TYPHIMURIUM, Strain/Indicator: TA100, Metabolic Activation: RAT, LIVER, S-9, AROCLOR 1254, Method: SPOT TEST inactive; negative | Test System: AMES SALMONELLA TYPHIMURIUM, Strain/Indicator: TA102, Metabolic Activation: NONE, Method: SPOT TEST inactive; negative | Test System: AMES SALMONELLA TYPHIMURIUM, Strain/Indicator: TA102, Metabolic Activation: RAT, LIVER, S-9, AROCLOR 1254, Method: SPOT TEST inactive; negative

C=CCOc1ccccc1OCC(O)CNC(C)C (stereo unspecified)
inactive: Test System: AMES SALMONELLA TYPHIMURIUM, Strain/Indicator: TA98, Metabolic Activation: NONE inactive; negative | Test System: AMES SALMONELLA TYPHIMURIUM, Strain/Indicator: TA98, Metabolic Activation: NONE, Method: STANDARD PLATE inactive; negative | Test System: AMES SALMONELLA TYPHIMURIUM, Strain/Indicator: TA98, Metabolic Activation: RAT, LIVER, S-9, AROCLOR 1254 inactive; negative | Test System: AMES SALMONELLA TYPHIMURIUM, Strain/Indicator: TA98, Metabolic Activation: RAT, LIVER, S-9, AROCLOR 1254, Method: STANDARD PLATE inactive; negative | Test System: AMES SALMONELLA TYPHIMURIUM, Strain/Indicator: TA100, Metabolic Activation: NONE inactive; negative | Test System: AMES SALMONELLA TYPHIMURIUM, Strain/Indicator: TA100, Metabolic Activation: NONE, Method: STANDARD PLATE inactive; negative | Test System: AMES SALMONELLA TYPHIMURIUM, Strain/Indicator: TA100, Metabolic Activation: RAT, LIVER, S-9, AROCLOR 1254 inactive; negative | Test System: AMES SALMONELLA TYPHIMURIUM, Strain/Indicator: TA100, Metabolic Activation: RAT, LIVER, S-9, AROCLOR 1254, Method: STANDARD PLATE inactive; negative | Test System: AMES SALMONELLA TYPHIMURIUM, Strain/Indicator: TA1535, Metabolic Activation: NONE inactive; negative | Test System: AMES SALMONELLA TYPHIMURIUM, Strain/Indicator: TA1535, Metabolic Activation: RAT, LIVER, S-9, AROCLOR 1254 inactive; negative | Test System: AMES SALMONELLA TYPHIMURIUM, Strain/Indicator: TA1537, Metabolic Activation: NONE inactive; negative | Test System: AMES SALMONELLA TYPHIMURIUM, Strain/Indicator: TA1537, Metabolic Activation: RAT, LIVER, S-9, AROCLOR 1254 inactive; negative | Test System: CHINESE HAMSTER V-79, Strain/Indicator: V-79/6-THIOGUANINE, Metabolic Activation: NONE, Method: REPLATING inactive; negative | Test System: CHINESE HAMSTER V-79, Strain/Indicator: V-79/6-THIOGUANINE, Metabolic Activation: RAT, HEPATOCYTES, Method: REPLATING inactive; negative | Test System: UDS HUMAN HEPATOCYTES, Strain/Indicator: THY INCORP, Metabolic Activation: NONE, Method: AUTORADIOGRAPHY inactive; negative | Test System: UDS RAT HEPATOCYTES, Strain/Indicator: THY INCORP, Metabolic Activation: NONE, Method: AUTORADIOGRAPHY inactive; negative

CN(C)CCCN
inactive: [1] inactive; negative | [2] inactive; negative | [3] inactive; negative | Test System: AMES SALMONELLA TYPHIMURIUM, Strain/Indicator: TA98, Metabolic Activation: RAT, LIVER, S-9, PCB, Method: PREINCUBATION inactive; negative | [4] inactive; negative | [5] inactive; negative | [6] inactive; negative | Test System: AMES SALMONELLA TYPHIMURIUM, Strain/Indicator: TA100, Metabolic Activation: RAT, LIVER, S-9, PCB, Method: PREINCUBATION inactive; negative | [7] inactive; negative | [8] inactive; negative | [9] inactive; negative | [10] inactive; negative | [11] inactive; negative | [12] inactive; negative

CC(=O)OC[C@@]1(O)CC23CC[C@@H]4c5ccoc5CC[C@@]4(C)[C@@H]2CC[C@@H]1C3
inactive: Test System: AMES SALMONELLA TYPHIMURIUM, Strain/Indicator: TM677, Metabolic Activation: NONE, Method: PREINCUBATION inactive; negative | Test System: AMES SALMONELLA TYPHIMURIUM, Strain/Indicator: TM677, Metabolic Activation: RAT, LIVER, S-9, AROCLOR 1254, Method: PREINCUBATION inactive; negative
